Tested on: human endothelial cells
Test: Human endothelial cell monolayer survival and repopulation following cryopreservation (Calcein-AM assay)
Format: cell-based
Procedure: A series of cryopreservation experiments was conducted on human endothelial and smooth muscle cell suspensions and monolayers to assess the performance of four (4) commercially available cryopreservation solutions: DP6, VS55, VS83, and M22, as well as nine (9) additional solutions: […] Eurocollins (EC) solution was included as a negative control, i.e., no cryoprotective agent (CPA) control, while media+10% DMSO ([…]) is a typical solution (10% DMSO) used in standard controlled rate cryopreservation protocols known to the skilled individual. Unisol is representative of the class of intracellular-like or intracellular-type solutions/media, whereas EC solution and culture media are representative of the class of extracellular-like or extracellular-type solutions/media. Other studies presented herein provide additional examples of intracellular- and extracellular-like solutions; other intracellular- and extracellular-like solutions are similarly useful and are known to those of skill in the art. FIG. 1 illustrates the results of an assessment of human endothelial cell survival following preservation. Monolayers of endothelial cells were frozen or vitrified and thawed in the indicated solutions (control, Uni, […], DP6, VS55, VS83, and […]). Following thawing, samples were diluted in culture media, placed into culture and assessed for viability at 1 day (24 hours) post-thaw and following seven (7) days of recovery using the Calcein-AM assay. […] The Uni and U10 conditions provided outcomes exceeding that of the VS55, VS83 and […] conditions. Therefore, subsequent studies (see, e.g., FIG. 2) focused on Unisol-based solutions with various CPAs and concentrations, in addition to the DP6 commercial cryopreservation solution. […] Monolayers of endothelial cells were frozen or vitrified and thawed in the indicated solutions. […] For pre-freeze (PF), post-warming (PW) and pre/post (P/P) conditioning studies, molecular modulation agents targeting inhibition of apoptosis (Caspase inhibitor IV, 8, 9 and a combination of Caspases 8 and 9), reduction of free-radical damage (resveratrol and NAC), and activation of the unfolded protein response (salubrinal) were employed as supplements in the media 1 hour prior to freezing (pre-freeze condition) or for 1 day following thawing and CPA removal from frozen samples (post-warming condition). Based on outcomes in the studies in Example 1, PF, PW and P/P conditioning were examined in Examples 2-3 using a series of Unisol-based solutions (Uni, U5, U10, U20, UG10, U5G10 and U10G10). […] Patent Application Publication No. US 2016/0097583 A1 (Ser. No. 14/876,087), which is incorporated by reference in its entirety as though fully set forth herein. The freeze and thaw process was slightly modified relative to the disclosure of U.S. Patent Application Publication No. US 2016/0097583 A1 by the addition of a 0.090 inch aluminum plate inserted into the bottom of the 96 well plate to aid in increasing cooling and heating uniformity throughout the plate, thereby reducing the well-to-well variability within the samples. The device was used to thaw the samples, which were frozen in situ in monolayers in standard 96-well tissue culture plates. […] A mitochondrial-mediated apoptotic inhibitor (Caspase 9) and a membrane-mediated apoptotic inhibitor (Caspase 8) were investigated to evaluate the involvement and impact of modulation of various apoptotic induction pathways. Additionally, a pan-Caspase inhibitor (Cas IV) was also investigated to assess the impact of global pathway modulation. As with the viability studies, cell survival and repopulation were assessed using Calcein-AM assays and analyzed using fluorescent microscopy (Zeiss). Survival was determined at 24 hours post-thaw to allow for the manifestation of any delayed onset cell death pathways to be executed. Further, cell recovery was included to evaluate the long term potency and repopulation potential of the various samples. […]

For `CC(=O)N[C@@H](CS)C(=O)O` [NAC, n-acetyl cysteine], which survival (P/P conditioning with NAC, salubrinal or resveratrol, U10G10) is on record?
The survival was about 60%.

What about the post-thaw viability (P/P conditioning, U10 and U5G10 CP solutions vs matched non-treated samples) of the same molecule?
The post-thaw viability was “increase in post-thaw viability”.

And the “day 1 survival increase over non-treated samples” value (P/P oxidative stress modulator conditioning, U10G10)?
The value was about 2.5 fold.

What about the “day 1 survival increase over non-treated samples” value (PF conditioning 1 hour, U10G10) of the same molecule?
Its value is about 2 fold.

And the “day 1 survival increase over non-treated samples” value (PW conditioning 24 hours, U10G10)?
Its value is about 2 fold.

What about the “post-thaw cell survival or recovery (overall)” value (PW conditioning in combination with various solutions) of the same molecule?
Its value is “Broader solution benefit”.

And the “cell recovery / repopulation, 3 days” value (PW conditioning with oxidative stress modulators, vs non-treated)?
Its value is “improved cell recovery”.

And the increase in survival (PW conditioning, U10 and U10G10 solutions, day 1)?
Its increase in survival is about 50%.

Reference: patent publication US20180368393A1, “PRE- AND POST-STORAGE STRESS RESPONSE CONDITIONING” (CPSI HOLDINGS LLC, priority 2017, published 2018)
